Assay results from patent publication US5037637A, “Antibacterial antiplaque, anticalculus oral composition” (priority 1989, dated 1991).

Columns and labels:
[1] = Human clinical tests, reduction of plaque formation; type: in vivo
[2] = system: four dental plaque organisms; experiment: Antibacterial effect on the four dental plaque organisms (summary in words); type: cell-based; settings: solutions without TCHE
Description: Slurries and solutions described below are prepared to determine effectiveness in terms of minimum inhibitory concentration (MIC) of various antibacterial agents against a variety of oral bacterial organisms implicated in formation of plaque and leading to gingivitis on dental surfaces. Soft plaque contains about 1.7×10^11 organism/gm. (net weight). The antibacterial agents are admixed with anionic materials, particularly anionic surface active agent often commonly employed in oral compositions and polyphosphate anticalculus agent.
Minimum inhibitory concentration (MIC) of antibacterial agent is used to evaluate the efficacy of the agent in vitro. […] The smaller the MIC value the greater is the efficacy of the antibacterial agent to inhibit the growth of the bacteria. The in vitro MIC data is related to the efficacy of the dentifrice in vivo since retention and release of antibacterial agent into the oral cavity after toothbrushing is in the range of mcg/ml.

[3] = Adsorption of TCHE to saliva coated tooth mineral hydroxyapatite; set-up: species or system human; settings: for % of TCHE Adsorbed to Coated HA: 37°, 3 hours
Description: The adsorption to and release from tooth minerals for antiplaque/ antitartar efficacy of agents is assessed by adsorption of antibacterial agent to saliva coated tooth mineral hydroxyapatite in the presence and the absence of pyrophosphate (soluble tetrasodium pyrophosphate)/Gantrez/NaF.
200 mg. of hydroxyapatite (HA) is treated with human saliva for 2 hours. The excess saliva is washed with a buffer and saliva coated HA is used for adsorption studies. Various concentrations of TCHE in SLS or in SLS/pyrophosphate/Gantrez/NaF are mixed with the coated HA and incubated at 37° for 3 hours under continuous agitation. At the end of incubation period, the mixtures are centrifuged, HA separated and the amounts of TCHE adsorbed determined by estimating TCHE in the supernatant at […] in a Gilford spectrophotometer. The amounts adsorbed are calculated by the difference between the amount added and the amount left in the supernatant after the incubation with coated HA. The table below summarizes the data.

Bacteriodes gingivalis = experiment: Antibacterial activity of dentifrice extracts, inhibition of growth; type: cell-based
Description: The dentifrice described in Example 3A is compared with the same composition except without any TCHE and with added 0.50 parts of water. Aqueous extracts of each dentifrice are prepared as follows: 50 ml of distilled water is added to 1.0 gm of each dentifrice, mixed well for a couple of hours with stirring bar and centrifuged, after which the supernatant is collected as aqueous extract. Antibacterial activity of the dentifrice extracts are evaluated on Bacteriodes gingivalis.

[H]/N=C(\N/C(=N/[H])NCCCCCCNC(=N)NC(=N)Nc1ccc(Cl)cc1)Nc1ccc(Cl)cc1 [CH, chlorhexidine digluconate]
reducing plaque formation ([1]; 0.1% CH and 1% sodium N-lauroyl sarcosinate dissolved in water): is not
reducing plaque formation ([1]; 0.1% CH dissolved in water): effective in reducing plaque formation

CCCCCCCCCCCCOS(=O)(=O)[O-].[Na+] [SLS, sodium lauryl sulfate]
antibacterial effect [2]: ineffective

CC(C)(C)CC(C)(C)c1ccc(OCCOCC[N+](C)(C)Cc2ccccc2)cc1 [BTC, benzthonium chloride]
reducing plaque formation ([1]; 0.075% BTC and 1% pyrophosphate dissolved in water): is not
reducing plaque formation ([1]; 0.075% BTC dissolved in water): effective in reducing plaque formation

Oc1cc(Cl)ccc1Oc1ccc(Cl)cc1Cl [TCHE, 2,4,4'-trichloro-2'-hydroxydiphenyl ether]
% of TCHE Adsorbed to Coated HA ([3]; 0.005% TCHE in 1% SLS, 0.5% Gantrez, 2% pyrophosphate/0.24% NaF): 80%
% of TCHE Adsorbed to Coated HA ([3]; 0.005% TCHE in 1% SLS): 80%
% of TCHE Adsorbed to Coated HA ([3]; 0.01% TCHE in 1% SLS, 0.5% Gantrez, 2% pyrophosphate/0.24% NaF): 85%
% of TCHE Adsorbed to Coated HA ([3]; 0.01% TCHE in 1% SLS): 85%
% of TCHE Adsorbed to Coated HA ([3]; 0.015% TCHE in 1% SLS, 0.5% Gantrez, 2% pyrophosphate/0.24% NaF): 86%
% of TCHE Adsorbed to Coated HA ([3]; 0.015% TCHE in 1% SLS): 85%
% of TCHE Adsorbed to Coated HA ([3]; 0.02% TCHE in 1% SLS, 0.5% Gantrez, 2% pyrophosphate/0.24% NaF): 87%
% of TCHE Adsorbed to Coated HA ([3]; 0.02% TCHE in 1% SLS): 88%
effect of addition of pyrophosphate/Gantrez/NaF on adsorption of TCHE to saliva coated tooth minerals ([3]; with vs without pyrophosphate/Gantrez/NaF): does not impair adsorption
compatibility in dentifrice composition containing anionic surfactant plus pyrophosphate with Gantrez and NaF (Bacteriodes gingivalis; from growth inhibition by dentifrice extracts): compatible
inhibition at 5 µg/mL (Bacteriodes gingivalis; read-out: Inhibition of Growth of Bacteriodes Gingivalis): 100%
